Test results from patent US20120196919A1, “EX-VIVO TREATMENT OF IMMUNOLOGICAL DISORDERS WITH PKC-THETA INHIBITORS” (NEW YORK UNIVERSITY, priority 2009, published 2012).
Each block holds one compound with its values, some of them ahead of it.

Experiments:
[1] = target: PKC-theta (Homo sapiens, UniProt Q04759); assay: luciferase assay for inhibition of the kinase activity of PKC-theta; format: biochemical; conditions: luciferase assay of US 2005/0124640
Procedure: The preparation of these compounds and the luciferase assay used to determine the IC50 for inhibition of the kinase activity of PKC-theta are described in US Patent Application Publication number 2005/0124640. For the in vitro and ex vivo assays above, compounds were dissolved in DMSO. T cells were pretreated with indicated concentrations of the inhibitors or DMSO control for 30 min at 37° C. and washed three times.

[2] = tested on: CD4+CD25+ Treg cells; assay: T cell transfer model of colitis with ex vivo treated Treg; format: in vivo, C57BL/10.PL TCR alpha-/-beta-/- mice; conditions: inhibitor treated Treg
Procedure: (§1) Colitis was induced in C57BL/10.PL TCR alpha^−/−beta^−/− mice as described in Methods summary. 5a—numbers of mice were 5 (PBS), 8 (Teff), 7 (Teff/Treg control), 7 (Teff/Treg PKC-theta inhibitor). 5b-Histology slides of distal colon for the different groups. Normal histology is observed in PKC-theta treated mice. 5c, 5d-Freshly purified Treg from healthy donors and RA patients were treated or not with PKC-theta inhibitor for 30 min at 1 microM, washed three times, mixed with CD4^+CD25^− T cells at ratio 1:3, and plated on anti-CD3 mAb. The supernatants were analyzed for IFN-gamma after 24-48 hours. Combined data of three independent experiments are presented. % Treg-mediated inhibition was calculated as: 1−level of IFN-gamma in presence of Treg/level of IFN-gamma in absence of Treg)φ100%. P values were calculated by t-test.
Next, we determined the ability of PKC-theta inhibitor Ia to up-regulate Treg function in vivo using a colitis model in TCR alpha^−/−beta^−/− mice induced by transfer of effector CD4^+CD25^−CD45RB^+ Teff cells (F. Powrie, et al., J. Exp. Med. 1996, 183, 2669).
[…] Disease progression was monitored by body weight loss, diarrhea and histology analysis as previously described (F. Powrie, et al., J. Exp. Med. 1996, 183, 2669). P values were determined by Mann-Whitney test or two-tailed t-test by using the GraphPad Prism software (San Diego, Calif.).

[3] = tested on: CD4+CD25+ Treg cells; assay: Treg/Teff co-culture on anti-CD3 mAb, IFN-gamma secretion by ELISA; format: cell-based, human
Procedure: (§2) Treg cells and CD4^+CD25^− Teff (non-Treg) cells were treated with Compound Ia at 0.001-1 microM (a-b) for 30 min, or at 1 microM for 0-60 min (c). Treated cells were mixed with CD4^+CD25^− T (Teff) cells at 1:9 ratio and plated on immobilized anti-CD3 mAb. The supernatants were analyzed for IFN-gamma after 24-48 hours (a and c). Cell proliferation was determined after 96 hours (b). Average of four different experiments is shown.
Treg were treated with 1 microM PKC-theta inhibitors with different IC50 values as indicated on graph. Treated cells were mixed with CD4^+CD25^− T (Teff) cells at 1:9 ratio and plated on immobilized anti-CD3 mAb. The supernatants were analyzed for IFN-gamma after 24-48 hours. An average of four different experiments is shown. As shown in the graph, the enhancement of suppressive effect on IFN-gamma secretion generally correlates with the potency of the inhibitors.
Treated Treg and non-Treg, or siRNA-transfected Treg were mixed with CD4^+CD25^− T (Teff) cells at 1:9 ratio and plated on immobilized anti-CD3 mAb. The supernatants were analyzed for IFN-gamma after 24-48 hours. An average of four different experiments is shown.
CD4^+CD25^+ regulatory T cells (Tregs) suppress the function of CD4^+ and CD8^+ effector cells (Teff) through an antigen receptor and cell contact mechanism. […] We investigated whether inhibition of PKC-theta may affect the suppressive function of human CD4^+CD25^+ Treg cells in vitro. For this purpose, we treated CD4^+CD25^+ Treg or CD4^+CD25^− Teff cells (Treg or non-Treg respectively in FIGS. 1a and 1b) with a specific PKC-theta inhibitor, namely, Compound Ia, washed and cultured the cells with untreated Teff cells in a ratio of 1:9 on stimulatory anti-CD3 antibodies. IFN-gamma secretion and cell proliferation were measured after 24 and 96 hours respectively. […] Moreover, the effect of PKC-theta inhibitor on Treg function was time-dependent; maximal levels of enhanced suppressive function were achieved after 30 min of Treg treatment with the compound (FIG. 1c).
(§3) CD4^+CD25^+ Treg and CD4^+CD25^− Teff cells were purified from the peripheral blood of healthy human donors or from 25 patients with Rheumatoid arthritis in different stages (accordingly to disease activity score (DAS)) as described in the literature M. L. Prevoo, et al., Arthritis and rheumatism, 1995, 38, 44; A. Zanin-Zhorov, et al., J. Clin. Invest, 2006, 116, 2022). […] Cytokine secretion was determined by ELISA as previously described A. Zanin-Zhorov, et al., ibid., 2006), using Human IFN-gamma Cytose™ (Biosource; Camarillo, Calif.). Proliferation was assessed by Alamar Blue™ assay (Invitrogen) as previously described (S. A. Ahmed, et al., J. immunological Methods, 1994, 170, 211-224). […]

[4] = tested on: CD4+CD25+ Treg cells; assay: Treg/Teff co-culture on anti-CD3 mAb, cell proliferation by Alamar Blue; format: cell-based, human; conditions: Treg treated 0.001-1 microM 30 min, washed, Treg/Teff 1:9, anti-CD3; proliferation after 96 h (FIG. 1b)
Procedure: as §2
CD4^+CD25^+ regulatory T cells (Tregs) suppress the function of CD4^+ and CD8^+ effector cells (Teff) through an antigen receptor and cell contact mechanism. […] IFN-gamma secretion and cell proliferation were measured after 24 and 96 hours respectively. […]
as §3

[5] = tested on: Treg cells purified from RA patients; assay: Suppression of IFN-gamma from autologous Teff by Treg purified from RA patients; format: cell-based, human; conditions: Treg from 25 RA patients, 1 microM 30 min, Treg/Teff 1:3, 24-48 h (FIG. 5d)
Procedure: as §1, with “t-test. […]” for “t-test.”
as §3, with “Calif.).” for “Calif.). Proliferation was assessed by Alamar Blue™ assay (Invitrogen) as previously described (S. A. Ahmed, et al., J. immunological Methods, 1994, 170, 211-224).”

Sequence of PKC-theta (Q04759 whole entry): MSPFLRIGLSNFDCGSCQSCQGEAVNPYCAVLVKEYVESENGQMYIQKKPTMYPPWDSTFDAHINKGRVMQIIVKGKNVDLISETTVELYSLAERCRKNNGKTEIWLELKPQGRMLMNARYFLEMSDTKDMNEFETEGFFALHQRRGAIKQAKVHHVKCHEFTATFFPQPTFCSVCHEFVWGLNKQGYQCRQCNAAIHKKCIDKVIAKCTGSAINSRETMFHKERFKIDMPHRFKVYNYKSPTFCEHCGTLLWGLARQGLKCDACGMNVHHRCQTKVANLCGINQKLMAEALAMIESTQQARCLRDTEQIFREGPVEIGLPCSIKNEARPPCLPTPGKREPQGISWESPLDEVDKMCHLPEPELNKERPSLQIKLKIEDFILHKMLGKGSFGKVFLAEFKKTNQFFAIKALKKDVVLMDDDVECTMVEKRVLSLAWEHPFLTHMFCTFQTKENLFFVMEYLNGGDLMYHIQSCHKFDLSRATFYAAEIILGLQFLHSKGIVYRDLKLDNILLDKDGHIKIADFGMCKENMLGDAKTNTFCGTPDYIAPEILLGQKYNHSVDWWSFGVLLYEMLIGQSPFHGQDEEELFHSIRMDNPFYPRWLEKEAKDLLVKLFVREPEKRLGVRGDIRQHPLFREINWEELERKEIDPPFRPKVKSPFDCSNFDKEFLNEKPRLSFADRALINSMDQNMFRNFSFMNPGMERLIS

- IC50 [1]: 8 nM
Structure (SMILES): O=[N+]([O-])c1cnc(SCc2ccccc2Cl)nc1NCC1CCNCC1 [Ic]

- IC50 [1]: 1000 nM
Structure (SMILES): N[C@H]1CC[C@H](CNc2nc(NCc3ccccc3OC(F)(F)F)ccc2[N+](=O)[O-])CC1 [Ie]

- IC50 [1]: 300 nM
Structure (SMILES): O=[N+]([O-])c1cnc(NCC2CCNCC2)nc1NCc1ccccc1OC(F)(F)F [Id]

- IC50 [1]: 1 nM
Structure (SMILES): N[C@H]1CC[C@H](CNc2nc(NCc3ccccc3OC(F)(F)F)ncc2[N+](=O)[O-])CC1 [Ib]

- IC50 [1]: 0.7 nM
Structure (SMILES): NC[C@H]1CC[C@H](CNc2nc(NCc3ccccc3OC(F)(F)F)ncc2[N+](=O)[O-])CC1 [Compound Ia]
- mice with normal weight gain and normal histology of the distal colon ([2]; 1:4 ratio of Treg/Teff): 7 of 8
- protection of the recipient mice from colitis ([2]; 1:4 ratio of Treg/Teff (FIGS. 5a and 5b)): ~100%
- induction of suppressive activity in treated Teff (non-Treg) added to untreated responder Teff ([3]; CD4+CD25- Teff treated, 1:9 ratio (FIGS. 1a and 1b)): does not induce suppressive activity
- suppressive ability of Treg cells (IFN-gamma production by Teff) ([3]; Treg treated 0.001-1 microM 30 min, washed, Treg/Teff 1:9, anti-CD3, IFN-gamma after 24 h (FIG. 1a)): significantly up-regulated
- treatment time for maximal levels of enhanced suppressive function ([3]; Treg treated at 1 microM for 0-60 min, IFN-gamma readout (FIG. 1c)): 30 min
- ability of Treg cells to inhibit IFN-gamma secretion in Teff cells ([3]; treated or siRNA-transfected Treg, Treg/Teff 1:9, 24-48 h (FIG. 4)): increased
- suppressive ability of Treg cells (cell proliferation) [4]: significantly up-regulated
- suppressive function of Treg cells purified from RA patients (IFN-gamma) [5]: significantly increased
